Results taken from patent US9133207B2, “Tetrandrine derivatives with substituted 5-carbon, preparation method and use thereof” (Hangzhou Bensheng Pharmaceutical Co., Ltd., priority 2011, dated 2015).
Values after ≈ are worked out from the molar mass of the structure shown.

What was measured:
[1] = system: RPMI8226 (multiple myeloma); test: Multiple myeloma cell growth inhibition, MTT, 72 h (Example 6); type: cell-based, human; conditions: Homo sapiens, RPMI-8226; 72 h, MTT, RPMI8226
In short: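 Viability was read by MTT after 72 h of compound exposure at 37 °C, 5% CO2. Each well held 6000 RPMI8226 cells in 1640 medium containing 10% fetal bovine serum, with derivatives added at various concentrations.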

[2] = Experiment 8-1: body weight of nude mice, preliminary toxicity; type: in vivo, BALB/c nude mice
Procedure: (§1) BS-TE-403 and BS-TE-333 (the present invention), and tetrandrine TTD from Jiangxi Jinfurong Pharmaceutical Co., Ltd. All compounds are administered at the dosage of 50 mg/kg weight each time.
(§2) The experiments are divided into 4 groups: negative control group (solvent group), positive control group (lead compound TTD group), BS-TE-403 group and BS-TE-333 group.
(§3) The administrations are successive for 10 days.

[3] = system: human non-small cell lung cancer cell line A549 transplanted tumor; test: Experiment 8-1: transplanted tumor of human lung cancer in nude mice; type: in vivo, BALB/c nude mice
Procedure: Cell lines: human non-small cell lung cancer cell line A549, from China Center for Type Culture Collection (CCTCC);
as §1
Under sterile conditions, the above tumor cells in the logarithmic growth phase are collected and injected by subcutaneous injection in an amount of 5×10^6/0.2 ml/nude mice (cell viability>95%) into the right subaxillary of the nude mice, thus establishing a transplated tumor model of human non-small cell lung cancer in nude mice.
as §2, §3

[4] = system: Kasumi-1 (acute myeloid leukemia M2 type, AML-M2); test: Leukemia cell growth inhibition, MTT, 72 h (Example 5); type: cell-based, human; conditions: Homo sapiens, Kasumi 1
In short: (§4)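 RPMI 1640 + 10% FBS, 6000 cells/well; tetrandrine derivatives at various concentrations; 37° C, 5% CO2, 72 h; viability by MTT.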

[5] = system: H9 (acute lymphoblastic leukemia, ALL); test: as above; type: cell-based, human; conditions: Homo sapiens; 72 h, MTT
In short: as §4

[6] = system: K562/adr (drug-resistant, chronic myeloid leukemia, CML); test: as above; type: cell-based, human; conditions: Homo sapiens, K562/Adr; 72 h, MTT
In short: as §4

[7] = system: Jurkat (acute lymphoblastic leukemia, ALL); test: as above; type: cell-based, human; conditions: Homo sapiens, Jurkat; 72 h, MTT
In short: as §4

[8] = system: NB4 (acute promyelocytic leukemia, AML); test: as above; type: cell-based, human; conditions: Homo sapiens; 72 h, MTT
In short: as §4

MG63 (osteosarcoma) = test: Solid tumor cell growth inhibition, MTT, 72 h (Example 7); type: cell-based, human; conditions: Homo sapiens; 72 h, MTT, MG-63
In short: (§5)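 4000 cells/well; DMEM high glucose + 10% FBS; 37 °C, 5% CO2; 24 h pre-culture; tetrandrine derivatives, varied conc., 72 h; MTT readout; viability % vs untreated control = 100%.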

[9] = system: Hep-2 (laryngeal carcinoma); test: as above; type: cell-based, human; conditions: Homo sapiens; 72 h, MTT, Hep 2
In short: as §5

[10] = system: CaES-17 (esophageal cancer cell); test: as above; type: cell-based, human; conditions: Homo sapiens, CaEs17; 72 h, MTT, CAES-17
In short: as §5

PC-3 (prostate cancer) = test: as above; type: cell-based, human; conditions: Homo sapiens; 72 h, MTT, PC-3
In short: as §5

[11] = system: PANC-1 (pancreatic cancer); test: as above; type: cell-based, human; conditions: Homo sapiens; 72 h, MTT, PANC-1
In short: as §5

[12] = system: Becap37 (human breast cancer cell); test: as above; type: cell-based; conditions: Homo sapiens; 72 h, MTT, Becap-37
In short: as §5

[13] = system: CNE (nasopharyngeal carcinoma cell); test: as above; type: cell-based; conditions: Homo sapiens
In short: as §5

A549 (human lung cancer) = test: as above; type: cell-based; conditions: Homo sapiens; 72 h, MTT, A549
In short: as §5

[14] = system: Hela (human cervical cancer cell); test: as above; type: cell-based; conditions: Homo sapiens; 72 h, MTT, Hela
In short: as §5

[15] = system: SK-OV-3 (ovarian cancer cell); test: as above; type: cell-based; conditions: Homo sapiens
In short: as §5

[16] = system: RKO (human colon adenocarcinoma cell); test: as above; type: cell-based; conditions: Homo sapiens; 72 h, MTT, RKO
In short: as §5

[17] = system: Huh7 (human liver cancer cell); test: as above; type: cell-based; conditions: Homo sapiens; 72 h, MTT, Huh-7
In short: as §5

[18] = system: MGC 803 (human gastric cancer cell); test: as above; type: cell-based; conditions: Homo sapiens
In short: as §5

[19] = system: U87 MG (malignant glioma cell); test: as above; type: cell-based; conditions: Homo sapiens, U-87 MG
In short: as §5

[20] = system: drug-resistant lung cancer cell GLC-82/ADR; conditions: while adriamycin is used, without tetrandrine; cited from earlier work

COc1ccc2cc1Oc1ccc(cc1)C[C@H]1c3cc(c(OC)cc3CCN1C)Oc1c(OC)c(OC)c(CN3CCN(C(C)C)CC3)c3c1[C@H](C2)N(C)CC3 [BS-TE-333]
IC50 [1]: 0.06 µg/mL (≈ 0.0786 µM)
IC90 [1]: 2.34 µg/mL (≈ 3.07 µM)
toxic or side effect under such a dosage ([2]; 50 mg/kg): has caused some toxic and side effect
weight loss as compared with the weight in the control group (FIG. 1) ([2]; 50 mg/kg): relatively obvious
Weight (g) Final ([2]; 50 mg/kg intragastric, 3 times a day, 10 days, final body weight, M±SD): 16.95 ± 2.30 g
Weight (g) Initial ([2]; nude mice body weight before administration, M±SD): 21.3 ± 0.24 g
effect on transplanted tumor of human lung cancer in nude mice (FIG. 2) ([3]; 50 mg/kg): exhibit inhibiting effects
Mass of tumor ([3]; 50 mg/kg intragastric, 3 times a day, 10 days, Day 27, M±SD): 639.25 ± 285.20 mg
Tumor Inhibition rate (%) ([3]; 50 mg/kg intragastric, 3 times a day, 10 days, Day 27, control = zero): 31.15%
IC50 [4]: 0.77 µg/mL (≈ 1.01 µM)
IC90 [4]: 3.29 µg/mL (≈ 4.31 µM)
IC50 [5]: 1.14 µg/mL (≈ 1.49 µM)
IC90 [5]: 1.84 µg/mL (≈ 2.41 µM)
IC50 [6]: 0.43 µg/mL (≈ 0.564 µM)
IC90 [6]: 1.91 µg/mL (≈ 2.5 µM)
IC50 [7]: 0.81 µg/mL (≈ 1.06 µM)
IC90 [7]: 4.18 µg/mL (≈ 5.48 µM)
IC50 [8]: 0.48 µg/mL (≈ 0.629 µM)
IC90 [8]: 1 µg/mL (≈ 1.31 µM)
IC50 (MG63 (osteosarcoma)): 0.7 µg/mL (≈ 0.917 µM)
IC90 (MG63 (osteosarcoma)): 1.3 µg/mL (≈ 1.7 µM)
IC50 [9]: 1.72 µg/mL (≈ 2.25 µM)
IC90 [9]: 9.69 µg/mL (≈ 12.7 µM)
IC50 [10]: 2.35 µg/mL (≈ 3.08 µM)
IC90 [10]: 17.1 µg/mL (≈ 22.4 µM)
IC50 (PC-3 (prostate cancer)): 1.85 µg/mL (≈ 2.42 µM)
IC90 (PC-3 (prostate cancer)): 2.9 µg/mL (≈ 3.8 µM)
IC50 [11]: 1.69 µg/mL (≈ 2.21 µM)
IC90 [11]: 9.93 µg/mL (≈ 13 µM)
IC50 [12]: 1 µg/mL (≈ 1.31 µM)
IC90 [12]: 4.5 µg/mL (≈ 5.9 µM)
IC50 [13]: 2.6 µg/mL (≈ 3.41 µM)
IC90 [13]: 5.6 µg/mL (≈ 7.34 µM)
IC50 (A549 (human lung cancer)): 1.5 µg/mL (≈ 1.97 µM)
IC90 (A549 (human lung cancer)): 11 µg/mL (≈ 14.4 µM)
IC50 [14]: 1.69 µg/mL (≈ 2.21 µM)
IC90 [14]: 5 µg/mL (≈ 6.55 µM)
IC50 [15]: 3.04 µg/mL (≈ 3.98 µM)
IC90 [15]: > 16 µg/mL
IC50 [16]: 0.54 µg/mL (≈ 0.708 µM)
IC90 [16]: 1.74 µg/mL (≈ 2.28 µM)
IC50 [17]: 1.64 µg/mL (≈ 2.15 µM)
IC90 [17]: 2.45 µg/mL (≈ 3.21 µM)
IC50 [18]: 0.84 µg/mL (≈ 1.1 µM)
IC90 [18]: 5.3 µg/mL (≈ 6.95 µM)
IC50 [19]: 0.5 µg/mL (≈ 0.655 µM)
IC90 [19]: 1.51 µg/mL (≈ 1.98 µM)

COc1cccc2c1C(=O)c1c(O)c3c(c(O)c1C2=O)C[C@@](O)(C(=O)CO)C[C@@H]3O[C@H]1C[C@H](N)[C@H](O)[C@H](C)O1 [adriamycin]
drug-resistance index [20]: 5.43
